The values that follow come from patent US12448388B2, “PRMT5 inhibitors and uses thereof” (Gilead Sciences, Inc., priority 2023, dated 2025).

As a reminder, the CC50 is the concentration that lowers cell viability or growth by half.

In the test the test system is HCT116 MTAP-deleted cell lines. Description: Cell viability assay (CellTiter-Glo, 7 days), HCT116 MTAP-deleted. The format is cell-based. The conditions noted are these: Homo sapiens, HCT-116; cell viability assay, HCT116 MTAP-deleted; class symbols; read-out: CC50. The gist of the method:
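Read-out was CellTiter-Glo luminescence after a 7-day incubation (37 °C, 5% CO2) of HCT116 cells, MTAP-deleted or WT, on dose-response compound plates. CC50 values come from each line; where marked *, selectivity is overstated because poor solubility impaired the WT CC50 measurement.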
As to `CN(C(=O)c1cc2c(cc1F)nc(N)c1cncn12)[C@@H]1COc2cc(C3=CCOC3)ccc21` [Ff-483, (S)-4-amino-N-(6-(2,5-dihydrofuran-3-yl)-2,3-dihydrobenzofuran-3-yl)-7-fluoro-N-methylimidazo[1,5-a]quinoxaline-8-carboxamide], the CC50 was less than 100 nM. For `CN(C(=O)c1cc2c(cc1F)nc(N)c1cncn12)[C@@H]1COc2cc(C3=CCOC3(C)C)ccc21` [Ff-485, (S)-4-amino-N-(6-(2,2-dimethyl-2,5-dihydrofuran-3-yl)-2,3-dihydrobenzofuran-3-yl)-7-fluoro-N-methylimidazo[1,5-a]quinoxaline-8-carboxamide] the value was less than 100 nM; for `CN(C(=O)c1cc2c(cc1F)nc(N)c1cncn12)[C@@H]1COc2cc(C3CCOC3(C)C)ccc21` (stereo partly drawn) [Ff-486, 4-amino-N-((3S)-6-(2,2-dimethyltetrahydrofuran-3-yl)-2,3-dihydrobenzofuran-3-yl)-7-fluoro-N-methylimidazo[1,5-a]quinoxaline-8-carboxamide], less than 100 nM; for `Nc1nc2cc(Cl)c(C(=O)N3CC[C@@H]4C[C@H]3c3ccc(Cl)cc34)cc2n2cncc12` [Ff-487, (4-amino-7-chloroimidazo[1,5-a]quinoxalin-8-yl)((1S,5R)-7-chloro-1,3,4,5-tetrahydro-2H-1,5-methanobenzo[c]azepin-2-yl)methanone], 100 to 1000 nM. Consider `Nc1nc2cc(Cl)c(C(=O)N3CC[C@H]4C[C@@H]3c3c(F)cc(Cl)cc34)cc2n2cncc12` [Ff-488, (4-amino-7-chloroimidazo[1,5-a]quinoxalin-8-yl)((1R,5S)-7-chloro-9-fluoro-1,3,4,5-tetrahydro-2H-1,5-methanobenzo[c]azepin-2-yl)methanone], for which the CC50 fell in the range of 100 to 1000 nM. As to `Nc1nc2cc(Cl)c(C(=O)N3CC[C@H]4C[C@@H]3c3ccc(Cl)c(F)c34)cc2n2cncc12` [Ff-489, (4-amino-7-chloroimidazo[1,5-a]quinoxalin-8-yl)((1R,5S)-7-chloro-6-fluoro-1,3,4,5-tetrahydro-2H-1,5-methanobenzo[c]azepin-2-yl)methanone], the CC50 lay in the range of 100 to 1000 nM. Consider `CN(C(=O)c1cc2c(cc1C#N)nc(N)c1cncn12)[C@@H]1COc2cc(C(F)(F)F)ccc21` [Ff-490, (S)-4-amino-7-cyano-N-methyl-N-(6-(trifluoromethyl)-2,3-dihydrobenzofuran-3-yl)imidazo[1,5-a]quinoxaline-8-carboxamide], for which the CC50 was less than 100 nM. To `Cc1ncn2c1c(N)nc1cc(Cl)c(C(=O)N(C)[C@@H]3COc4cc(C(F)(F)F)ccc43)cc12` [Ff-492, (S)-4-amino-7-chloro-N,3-dimethyl-N-(6-(trifluoromethyl)-2,3-dihydrobenzofuran-3-yl)imidazo[1,5-a]quinoxaline-8-carboxamide] belongs less than 100 nM; to `[2H]C([2H])([2H])c1ncn2c1c(N)nc1cc(F)c(C(=O)N(C)[C@@H]3COc4cc(C(F)(F)F)ccc43)cc12` [Ff-497, (S)-4-amino-7-fluoro-N-methyl-3-(methyl-d3)-N-(6-(trifluoromethyl)-2,3-dihydrobenzofuran-3-yl)imidazo[1,5-a]quinoxaline-8-carboxamide], less than 100 nM.

Regarding `Cc1ncn2c1c(N)nc1cnc(C(=O)N3C[C@H](C)O[C@@H]4Cc5cc(C(F)(F)F)ccc5[C@@H]43)cc12` [Ff-498, (4-amino-3-methylimidazo[1,5-a]pyrido[3,4-e]pyrazin-8-yl)((2S,4aS,9aR)-2-methyl-7-(trifluoromethyl)-2,3,9,9a-tetrahydroindeno[2,1-b][1,4]oxazin-4(4aH)-yl)methanone], the CC50 is less than 100 nM. For `C[C@@H]1C[C@@H]2Oc3cc(OC(F)(F)F)ccc3[C@@H]2N(C(=O)c2cc3c(cc2F)nc(N)c2cncn23)C1` [Ff-500, (4-amino-7-fluoroimidazo[1,5-a]quinoxalin-8-yl)((3R,4aS,9bS)-3-methyl-7-(trifluoromethoxy)-3,4,4a,9b-tetrahydrobenzofuro[3,2-b]pyridin-1(2H)-yl)methanone] the value was less than 100 nM. For `CN(C(=O)c1cc2c(cc1F)nc(N)c1cncn12)[C@@H]1COc2cc(C(F)(F)F)c(F)cc21` [Ff-503, (S)-4-amino-7-fluoro-N-(5-fluoro-6-(trifluoromethyl)-2,3-dihydrobenzofuran-3-yl)-N-methylimidazo[1,5-a]quinoxaline-8-carboxamide] the value was less than 100 nM. As to `C#Cc1ccc2c(c1)OC[C@H]2N(C)C(=O)c1cc2c(cc1F)nc(N)c1cncn12` [Ff-506, (S)-4-amino-N-(6-ethynyl-2,3-dihydrobenzofuran-3-yl)-7-fluoro-N-methylimidazo[1,5-a]quinoxaline-8-carboxamide], the CC50 is less than 100 nM. For `C[C@@H]1C[C@@H]2Oc3cc(OC(F)(F)F)ccc3[C@@H]2N(C(=O)c2cc3c(cn2)nc(N)c2cncn23)C1` [Ff-507, (4-aminoimidazo[1,5-a]pyrido[3,4-e]pyrazin-8-yl)((3R,4aS,9bS)-3-methyl-7-(trifluoromethoxy)-3,4,4a,9b-tetrahydrobenzofuro[3,2-b]pyridin-1(2H)-yl)methanone] the value was less than 100 nM; for `CN(C(=O)c1cc2c(cc1Cl)nc(N)c1cncn12)[C@@H]1COc2cc(C(C)(F)F)ccc21` [Ff-508, (S)-4-amino-7-chloro-N-(6-(1,1-difluoroethyl)-2,3-dihydrobenzofuran-3-yl)-N-methylimidazo[1,5-a]quinoxaline-8-carboxamide], less than 100 nM; for `Cc1ncc2c(N)nc3cnc(C(=O)N(C)[C@@H]4COc5cc(C(F)(F)F)ccc54)cc3n12` [Ff-509, (S)-4-amino-N,1-dimethyl-N-(6-(trifluoromethyl)-2,3-dihydrobenzofuran-3-yl)imidazo[1,5-a]pyrido[3,4-e]pyrazine-8-carboxamide], less than 100 nM.

Consider `Nc1nc2ccc(C(=O)N3CC[C@H]4C[C@@H]3c3ccc(C(F)(F)F)cc3O4)cc2n2cncc12` [Ff-510, (4-aminoimidazo[1,5-a]quinoxalin-8-yl)((2S,6R)-9-(trifluoromethyl)-3,4-dihydro-2H-2,6-methanobenzo[b][1,5]oxazocin-5(6H)-yl)methanone], for which the CC50 is less than 100 nM. To `Nc1nc2cc(F)c(C(=O)N3CC4CCC(O4)C3c3ccc(C(F)(F)F)cn3)cc2n2cncc12` (stereo not shown) [Ff-511, (4-amino-7-fluoroimidazo[1,5-a]quinoxalin-8-yl)(2-(5-(trifluoromethyl)pyridin-2-yl)-8-oxa-3-azabicyclo[3.2.1]octan-3-yl)methanone] belongs 100 to 1000 nM. To `Nc1nc2cc(F)c(C(=O)N3CC4CCC(C4)C3c3ccc(C(F)(F)F)cn3)cc2n2cncc12` (stereo not shown) [Ff-512, (4-amino-7-fluoroimidazo[1,5-a]quinoxalin-8-yl)(2-(5-(trifluoromethyl)pyridin-2-yl)-3-azabicyclo[3.2.1]octan-3-yl)methanone] belongs 100 to 1000 nM; to `CC1(C)CN(C(=O)c2cc3c(cc2F)nc(N)c2cncn23)C(c2ccc(C(F)(F)F)cn2)CO1` (stereo not shown) [Ff-513, (4-amino-7-fluoroimidazo[1,5-a]quinoxalin-8-yl)(2,2-dimethyl-5-(5-(trifluoromethyl)pyridin-2-yl)morpholino)methanone], less than 100 nM.

As for `CN(C(=O)c1cc2c(cc1F)nc(N)c1cncn12)[C@@H]1COc2cc(C#CC3(C)CC3)ccc21` [Ff-514, (S)-4-amino-7-fluoro-N-methyl-N-(6-((1-methylcyclopropyl)ethynyl)-2,3-dihydrobenzofuran-3-yl)imidazo[1,5-a]quinoxaline-8-carboxamide], the half-maximal cytotoxic concentration (CC50) was in the range of 100 to 1000 nM. For `CN(C(=O)c1cc2c(cc1F)nc(N)c1cncn12)[C@@H]1COc2cc(C#CC(F)(F)F)ccc21` [Ff-515, (S)-4-amino-7-fluoro-N-methyl-N-(6-(3,3,3-trifluoroprop-1-yn-1-yl)-2,3-dihydrobenzofuran-3-yl)imidazo[1,5-a]quinoxaline-8-carboxamide] the value was 100 to 1000 nM. Turning to `COC1(C#Cc2ccc3c(c2)OC[C@H]3N(C)C(=O)c2cc3c(cc2F)nc(N)c2cncn23)CCC1` [Ff-517, (S)-4-amino-7-fluoro-N-(6-((1-methoxycyclobutyl)ethynyl)-2,3-dihydrobenzofuran-3-yl)-N-methylimidazo[1,5-a]quinoxaline-8-carboxamide], the CC50 lay in the range of 100 to 1000 nM. To `CN(C(=O)c1ccc2nc(N)c3cncn3c2c1)[C@@H]1COc2cc(C#CC3(C)COC3)ccc21` [Ff-518, (S)-4-amino-N-methyl-N-(6-((3-methyloxetan-3-yl)ethynyl)-2,3-dihydrobenzofuran-3-yl)imidazo[1,5-a]quinoxaline-8-carboxamide] belongs less than 100 nM; to `COC1(C#Cc2ccc3c(c2)OC[C@H]3N(C)C(=O)c2ccc3nc(N)c4cncn4c3c2)CCC1` [Ff-519, (S)-4-amino-N-(6-((1-methoxycyclobutyl)ethynyl)-2,3-dihydrobenzofuran-3-yl)-N-methylimidazo[1,5-a]quinoxaline-8-carboxamide], 100 to 1000 nM; to `CN(C(=O)c1ccc2nc(N)c3cncn3c2c1)[C@@H]1COc2cc(C#CC3(CF)CC3)ccc21` [Ff-520, (S)-4-amino-N-(6-((1-(fluoromethyl)cyclopropyl)ethynyl)-2,3-dihydrobenzofuran-3-yl)-N-methylimidazo[1,5-a]quinoxaline-8-carboxamide], 100 to 1000 nM. To `CN(C(=O)c1ccc2nc(N)c3cncn3c2c1)[C@@H]1COc2cc(C#CC3(C(F)F)CC3)ccc21` [Ff-521, (S)-4-amino-N-(6-((1-(difluoromethyl)cyclopropyl)ethynyl)-2,3-dihydrobenzofuran-3-yl)-N-methylimidazo[1,5-a]quinoxaline-8-carboxamide] belongs 100 to 1000 nM; to `CN(C(=O)c1cc2c(cc1F)nc(N)c1cncn12)[C@@H]1COc2cc(C#CC3(C(F)(F)F)CC3)ccc21` [Ff-522, (S)-4-amino-7-fluoro-N-methyl-N-(6-((1-(trifluoromethyl)cyclopropyl)ethynyl)-2,3-dihydrobenzofuran-3-yl)imidazo[1,5-a]quinoxaline-8-carboxamide], 100 to 1000 nM.
